Source: paper PMC10819888, “Benzimidazole-Based Derivatives as Apoptotic Antiproliferative Agents: Design, Synthesis, Docking, and Mechanistic Studies” (Molecules, 2024)

Key:
Assay in all cases: NCI-60 one-dose assay
Assay type in all cases: cell-based
HS 578T = conditions: Homo sapiens, HS 578T (Breast Cancer), read-out: Cell Inhibition Percent
CCRF-CEM = conditions: Homo sapiens, CCRF-CEM (Leukemia), read-out: Cell Inhibition Percent
HOP-62 = conditions: Homo sapiens, HOP-62 (Non-Small Cell Lung Cancer), read-out: Cell Inhibition Percent
TK-10 = conditions: Homo sapiens, TK-10 (Renal Cancer), read-out: Cell Inhibition Percent
MDA-MB-435 = conditions: Homo sapiens, MDA-MB-435 (Melanoma), read-out: Cell Inhibition Percent
LOX IMVI = conditions: Homo sapiens, LOX IMVI (Melanoma), read-out: Cell Inhibition Percent
SNB-75 = conditions: Homo sapiens, SNB-75 (CNS cancer), read-out: Cell Inhibition Percent
HT29 = conditions: Homo sapiens, HT-29, HT29 (Colon Cancer), read-out: Cell Inhibition Percent
OVCAR-4 = conditions: Homo sapiens, OVCAR-4 (ovarian cancer), read-out: Cell Inhibition Percent
SNB-19 = conditions: Homo sapiens, SNB-19 (CNS cancer), read-out: Cell Inhibition Percent
OVCAR-8 = conditions: Homo sapiens, OVCAR-8 (ovarian cancer), read-out: Cell Inhibition Percent
UO-31 = conditions: Homo sapiens, UO-31 (Renal Cancer), read-out: Cell Inhibition Percent
HCT-116 = conditions: Homo sapiens, HCT-116 (Colon Cancer), read-out: Cell Inhibition Percent
MDA-MB-468 = conditions: Homo sapiens, MDA-MB-468 (Breast Cancer), read-out: Cell Inhibition Percent
UACC-257 = conditions: Homo sapiens, UACC-257 (Melanoma), read-out: Cell Inhibition Percent
OVCAR-3 = conditions: Homo sapiens, OVCAR-3 (ovarian cancer), read-out: Cell Inhibition Percent
A498 = conditions: Homo sapiens, A498 (Renal Cancer), read-out: Cell Inhibition Percent
NCI-H226 = conditions: Homo sapiens, NCI-H226 (Non-Small Cell Lung Cancer), read-out: Cell Inhibition Percent
HCC-2998 = conditions: Homo sapiens, HCC-2998 (Colon Cancer), read-out: Cell Inhibition Percent
T-47D = conditions: Homo sapiens, T47D, T-47D (Breast Cancer), read-out: Cell Inhibition Percent
RPMI-8226 = conditions: Homo sapiens, RPMI-8226 (Leukemia), read-out: Cell Inhibition Percent
NCI/ADR-RES = conditions: Homo sapiens, NCI/ADR-RES (ovarian cancer), read-out: Cell Inhibition Percent
MALME-3M = conditions: Homo sapiens, MALME-3M (Melanoma), read-out: Cell Inhibition Percent
SR = conditions: Homo sapiens, SR (Leukemia), read-out: Cell Inhibition Percent
IGROV1 = conditions: Homo sapiens, IGROV-1, IGROV1 (ovarian cancer), read-out: Cell Inhibition Percent
SK-MEL-2 = conditions: Homo sapiens, SK-MEL-2 (Melanoma), read-out: Cell Inhibition Percent
ACHN = conditions: Homo sapiens, ACHN (Renal Cancer), read-out: Cell Inhibition Percent
EKVX = conditions: Homo sapiens, EKVX (Non-Small Cell Lung Cancer), read-out: Cell Inhibition Percent
SK-OV-3 = conditions: Homo sapiens, SK-OV-3 (ovarian cancer), read-out: Cell Inhibition Percent

SMILES	inhibition at 10 µM (HS 578T) [%]	inhibition at 10 µM (CCRF-CEM) [%]	inhibition at 10 µM (HOP-62) [%]	inhibition at 10 µM (TK-10) [%]	inhibition at 10 µM (MDA-MB-435) [%]	inhibition at 10 µM (LOX IMVI) [%]	inhibition at 10 µM (SNB-75) [%]	inhibition at 10 µM (HT29) [%]	inhibition at 10 µM (OVCAR-4) [%]	inhibition at 10 µM (SNB-19) [%]	inhibition at 10 µM (OVCAR-8) [%]	inhibition at 10 µM (UO-31) [%]	inhibition at 10 µM (HCT-116) [%]	inhibition at 10 µM (MDA-MB-468) [%]	inhibition at 10 µM (UACC-257) [%]	inhibition at 10 µM (OVCAR-3) [%]	inhibition at 10 µM (A498) [%]	inhibition at 10 µM (NCI-H226) [%]	inhibition at 10 µM (HCC-2998) [%]	inhibition at 10 µM (T-47D) [%]	also measured
O=C(NN=Cc1ccccc1)c1ccc2[nH]c(-c3ccc(Cl)cc3)nc2c1 [Compound 4a, N′-Benzylidene-2-(4-chlorophenyl)-1H-benzimidazole-5-carbohydrazide]	7.92	11.2	0	0	0	7.23	10.7	3.67	0	0	1.37	8.73	0	0	0	0	22.1	5.74	0	18.2	inhibition at 10 µM (RPMI-8226): 13.8%; inhibition at 10 µM (NCI/ADR-RES): 0%; inhibition at 10 µM (MALME-3M): 1.28%; inhibition at 10 µM (SR): 18.1%; inhibition at 10 µM (IGROV1): 4.8%; inhibition at 10 µM (SK-MEL-2): 0%; inhibition at 10 µM (ACHN): 3.26%; inhibition at 10 µM (EKVX): 1.38%; inhibition at 10 µM (SK-OV-3): 4.7%
CN(C)c1ccc(C=NNC(=O)c2ccc3[nH]c(-c4ccc(Cl)cc4)nc3c2)cc1 [Compound 4b, N′-(4-(Dimethylamino)benzylidene)-2-(4-chlorophenyl)-1H-benzimidazole-5-carbohydrazide]	6.32	6.5	2.51	0	0	3.7	0.61	2.26	0	0	5.81	13.3	4.7	0	0	0	12.9	4.67	6.31	14.1	inhibition at 10 µM (RPMI-8226): 5.27%; inhibition at 10 µM (NCI/ADR-RES): 0.43%; inhibition at 10 µM (MALME-3M): 12.9%; inhibition at 10 µM (SR): 2.54%; inhibition at 10 µM (IGROV1): 15%; inhibition at 10 µM (SK-MEL-2): 0%; inhibition at 10 µM (ACHN): 1.36%; inhibition at 10 µM (EKVX): 2.85%; inhibition at 10 µM (SK-OV-3): 0%
O=C(NN=Cc1ccc(F)cc1)c1ccc2[nH]c(-c3ccc(Cl)cc3)nc2c1 [Compound 4d, N′-(4-Fluorobenzylidene)-2-(4-chlorophenyl)-1H-benzimidazole-5-carbohydrazide]	30	78.6	39.5	5.63	6.12	66	2.77	95.7	63.6	39.6	48.7	24.6	51.4	23.9	0	29.3	27.1	6.86	21	40.6	inhibition at 10 µM (RPMI-8226): 32.5%; inhibition at 10 µM (NCI/ADR-RES): 23%; inhibition at 10 µM (MALME-3M): 88.2%; inhibition at 10 µM (SR): 79.3%; inhibition at 10 µM (IGROV1): 59.8%; inhibition at 10 µM (SK-MEL-2): 16.7%; inhibition at 10 µM (ACHN): 64.3%; inhibition at 10 µM (EKVX): 26.8%; inhibition at 10 µM (SK-OV-3): 1.74%
O=C(NN=Cc1ccc(Cl)cc1Cl)c1ccc2[nH]c(-c3ccc(Cl)cc3)nc2c1 [Compound 4f, N′-(2,4-Dichlorobenzylidene)-2-(4-chlorophenyl)-1H-benzimidazole-5-carbohydrazide]	10.4	48.1	5.89	0	0	18.9	12.4	2.18	0	7.76	17.1	27.8	8.63	0	6.59	0	36.7	18.8	3.25	12.3	inhibition at 10 µM (RPMI-8226): 15.4%; inhibition at 10 µM (NCI/ADR-RES): 0%; inhibition at 10 µM (MALME-3M): 9.55%; inhibition at 10 µM (SR): 54.6%; inhibition at 10 µM (IGROV1): 31%; inhibition at 10 µM (SK-MEL-2): 2.9%; inhibition at 10 µM (ACHN): 9.01%; inhibition at 10 µM (EKVX): 13.7%; inhibition at 10 µM (SK-OV-3): 7.23%
COc1cc(/C=N/NC(=O)c2ccc3[nH]c(-c4ccc(Cl)cc4)nc3c2)cc(OC)c1OC [Compound 4h, N′-(3,4,5-Trimethoxybenzylidene)-2-(4-chlorophenyl)-1H-benzimidazole-5 carbohydrazide]	51.7	63.4	18.3	22.6	36	49.4	13.4	60.1	0	29	39.5	11.7	63.8	0	45.6	38.4	102	24	20	84.1	inhibition at 10 µM (RPMI-8226): 80.1%; inhibition at 10 µM (NCI/ADR-RES): 0%; inhibition at 10 µM (MALME-3M): 71.6%; inhibition at 10 µM (SR): 54.3%; inhibition at 10 µM (IGROV1): 31.6%; inhibition at 10 µM (SK-MEL-2): 16.4%; inhibition at 10 µM (ACHN): 32.3%; inhibition at 10 µM (EKVX): 4.23%; inhibition at 10 µM (SK-OV-3): 12.2%
O=C(N/N=C/c1ccc(O)cc1)c1ccc2[nH]c(-c3ccc(Cl)cc3)nc2c1 [Compound 4i, N′-(4-Hydroxybenzylidene)-2-(4-chlorophenyl)-1H-benzimidazole-5-carbohydrazide]	5.94	13.6	0	0	0	11.9	0	0	0	0	0	15.9	0	0	0	0	5.34	20.6	0	24.2	inhibition at 10 µM (RPMI-8226): 1.52%; inhibition at 10 µM (NCI/ADR-RES): 0%; inhibition at 10 µM (MALME-3M): 21.4%; inhibition at 10 µM (SR): 2.26%; inhibition at 10 µM (IGROV1): 17%; inhibition at 10 µM (SK-MEL-2): 0%; inhibition at 10 µM (ACHN): 4.33%; inhibition at 10 µM (EKVX): 0%; inhibition at 10 µM (SK-OV-3): 5.09%
